How the values were obtained:
[1] = test system: NCI-H460 (non small cell lung); assay: Proliferation/survival assay, NCI-H460; format: cell-based; conditions: same time dependence as in MCF-7
Description: (§1) A standard tetrazolium dye [3-(4,5-di-methylthiazol-2-yl)-2,5-diphenyltetrazoliumbromide; MTT]-based colorimetric assay was used to measure the proliferation/survival of cells in triplicate wells using a 96-well plate-based format. […] Cells were exposed continuously to test compounds for 24 or 72 h at which times related viable cell number per well was determined as previously described (Wijeratne, et al., J Nat. Prod. (2003) 66: 1567-1573, incorporated herein by reference).

[2] = Conversion of 2,3-dihydrowithaferin A-3β-O-sulfate to withaferin A in cell culture media (HPLC); format: physicochemical; conditions: DMEM + 10% fetal bovine serum, 37° C., 4, 16, 24 h, FIG. 2
Description: FIGS. 2A and 2B. Conversion of 2,3-dihydrowithaferin A-3β-O-sulfate (solid circles) to withaferin A (solid squares) in cell culture medium. (A) Incubation of 2,3-dihydrowithaferin A-3β-O-sulfate in DMEM supplemented with 10% fetal bovine serum. (B) Incubation in cysteine/methionine-free DMEM supplemented with 10% fetal bovine serum. The concentration of 2,3-dihydrowithaferin A-3β-O-sulfate (solid circles) and its conversion to withaferin A (solid squares) was measured over time by HPLC using an external standard curve method.
Stock solutions of 2,3-dihydrowithaferin A-3β-O-sulfate in DMSO (50 μL) were diluted into cell culture medium (950 μL) to achieve the indicated starting concentration, mixed thoroughly and the solution incubated in a CO2 incubator at 37° C. Aliquots (100 μL) were withdrawn at 4, 16, and 24 h and subjected to HPLC analysis for 2,3-dihydrowithaferin A-3β-O-sulfate (RRT=18.5 min) and withaferin A (RRT=23.5 min) on a Kromasil C18 RP column (250×4.6 mm, […]) with gradient elution using 40-100% aqueous MeOH and using an ELSD detector. An external standard curve method was used to calculate the concentration of each compound in the sampled aliquots (Khajuria, et al., J Sep. Sci. (2004) 27: 541-546, incorporated herein by reference).

[3] = test system: minimal heat shock response element derived from the promoter region of the Hsp70B gene; assay: Heat shock reporter (EGFP) induction; format: cell-based; conditions: overnight exposure, FIG. 8
Description: FIG. 8. Heat shock reporter induction measured by micro plate fluorimeter. Reporter cells stably transduced with a plasmid encoding enhanced green fluorescent protein (EGFP) under the control of a minimal heat shock response element were exposed to 2,3-dihydrowithaferin A-3β-O-sulfate (WA-SO4) or withaferin A (WA) at the indicated concentrations overnight. Relative fluorescence units (RFU) per well were determined as a measure of reporter activation. Each point represents the mean of nine determinations from three independent experiments.
Immortalized mouse embryo fibroblasts derived from homozygous Hsf1 knockout mice or their wild type littermates were exposed overnight to equitoxic concentrations of 1 or the known heat shock-inducing Hsp90 inhibitor gendanamycin. Whole cell lysates were prepared in non-ionic detergent buffer and immunoblotted for relative levels of Hsp72, a highly inducible member of the Hsp70 family of molecular chaperones, using monoclonal antibody C92F3A-5 (StressMarq Biosciences, Victoria, BC). Reactivity was detected using peroxidase-conjugated secondary antibody and chemiluminescent detection. To evaluate the relative ability of compounds to induce a heat shock response at the transcriptional level, a reporter cell line was used as previously described (Turbyville, et al., J. Nat. Prod. (2006) 69: 178-184, incorporated herein by reference). […]

WI-38 fibroblasts = assay: Detection of F-actin aggregation (phalloidin staining); format: cell-based, Human; conditions: 4 μM, 4 or 24 h, FIG. 3
Description: FIGS. 3A-3D. Induction of F-actin aggregation. Following incubation with test compounds for the indicated intervals, WI-38 fibroblasts were fixed and stained with fluorescently-labeled phalloidin (green signal) to visualize the actin cytoskeleton. Cells were counterstained with DAPI (blue signal) to identify their nuclei. All images were acquired using the same magnification and exposure conditions. Data are representative of two independent experiments. (A) DMSO, 24 h incubation. (B) Withaferin A, 4 h. (C) 2,3-Dihydrowithaferin A-3β-O-sulfate, 4 h. (D) 2,3-Dihydrowithaferin A-3β-O-sulfate, 24 h.
Cells were seeded in 8-well chamber slides at a density of 2×10^4 cells per well and allowed to adhere for 48 h. Compounds 1 and 2 were freshly prepared as 5 mM stock solutions in DMSO and applied to cells at a final concentration of 4 μM in RPMI culture medium supplemented with 10% fetal bovine serum, Glutamax™, and penicillin/streptomycin. Control wells were treated with an equal volume of DMSO, not exceeding 0.2% in culture media. Cells were incubated for 4 or 24 h in the continuous presence of the indicated compounds, then washed twice with PBS, fixed with 4% paraformaldehyde/PBS (pH 7.6), and permabilized with 0.1% triton-X 100/PBS. […]

[4] = test system: PC-3M (metastatic prostate cancer); assay: Proliferation/survival assay, PC-3M; format: cell-based; conditions: same time dependence as in MCF-7
Description: as §1

[5] = test system: MCF-7 breast cancer cells; assay: MTT proliferation/survival (cytotoxicity) assay, MCF-7; format: cell-based
Source text: FIG. 1. Concentration- and time-dependent cell proliferation/survival inhibition by 2,3-dihydrowithaferin A-3β-O-sulfate (WA-SO4) and withaferin A (WA). MCF-7 breast cancer cells were exposed to the indicated concentrations of compounds and relative viable cell number determined by dye reduction assay after the time intervals noted. Data are representative of three independent experiments.
as §1

[6] = test system: Ewing's sarcoma cells (CHP-100); conditions: 72 hours, MTT, FIG. 5
Source text: Relative viable cell number was quantified by MTT assay. Results are presented as a percentage compared to wells exposed to DMSO alone. […] Points: mean of triplicate determinations; Error bars: s.d.

[7] = test system: Human umbilical vein endothelial cells (HUVEC); assay: Endothelial cell network (tube) formation on Matrigel; format: cell-based; conditions: 16 h, FIG. 6
Description: FIG. 6. […] Human umbilical vein endothelial cells (HUVEC) were seeded into Matrigel-coated wells and allowed to adhere for 1 h. Adherent cells were exposed to the indicated concentrations of withaferin A, epi-withaferin A (α-WA) or an equal volume of solvent vehicle (DMSO) for 16 h. Cells were washed 1× in PBS and fixed to visualize tube formation by light microscopy.

CC1=C(CO)C(=O)OC(C(C)C2CC[C@H]3[C@@H]4C[C@H]5O[C@]56[C@@H](O)[C@@H](OS(=O)(=O)O)CC(=O)[C@]6(C)[C@H]4CC[C@]23C)C1 (stereo partly drawn) [2,3-dihydrowithaferin A-3β-O-sulfate]
proliferation/survival inhibition compared with withaferin A, NCI-H460 [1]: same results
conversion to withaferin A in cell culture media [2]: conversion of dihydrowithaferin A-3β-O-sulfate to withaferin A in cell culture media
heat shock reporter induction [3]: induces a robust heat shock response after overnight treatment of cells, albeit at higher concentrations than that of withaferin A
induction of F-actin aggregation (WI-38 fibroblasts): induced F-actin aggregation, but dihydrowithaferin A-3β-O-sulfate required a longer period of time
proliferation/survival inhibition compared with withaferin A, PC-3M [4]: same results
potency compared with withaferin A, MCF-7 ([5]; after ca. 72 hours): equipotent with withaferin A
inhibition of the proliferation/survival of MCF-7 breast cancer cells ([5]; dye reduction (MTT) assay, 24 or 72 h, FIG. 1): concentration- and time-dependent inhibition

CC1=C(CO)C(=O)OC([C@@H](C)C2CCC3C4C[C@H]5O[C@]56[C@H](O)C=CC(=O)[C@]6(C)C4CC[C@@]32C)C1 (stereo partly drawn) [epi-withaferin A]
inhibition of tumor cell growth in vitro, CHP-100 [6]: Concentration-dependent inhibition of tumor cell growth in vitro
inhibition of endothelial cell network formation [7]: Inhibition of endothelial cell network formation

Source: US20170066797A1, “WITHAFERIN A ANALOGS AND USES THEREOF” (Whitehead Institute for Biomedical Research, priority 2008, published 2017)
